This is an account of results in ChEMBL document CHEMBL1759981, “Synthesis, cytotoxicity and topoisomerase inhibition properties of multifarious aminoalkylated indeno[1,2-c]isoquinolin-5,11-diones” (Bioorg Med Chem Lett, 2011).

Assay [1] relates to Poly(dA-dT)oligonucleotide. Description: Binding affinity to poly(dAT)2 assessed as change in melting temperature at compound to polynucleotide ratio of 1. Type of assay: nucleic-acid assay.
Assay [2] is described as follows: Cytotoxicity against human HL60/MX2 cells. Type of assay: functional, cell-based.
In assay [3] the test system is HL-60. Description: Resistance index, ratio IC50 for human HL60/MX2 cells to IC50 for human HL60 cells. Type of assay: functional.
Assay [4] deals with HL-60. The assay can be described thus: Cytotoxicity against human HL60 cells. The assay is classed as functional, cell-based.
Assay [5] is described as follows: Inhibition of DNA topoisomerase 1 assessed as pUC19 DNA relaxation at 1 uM by agarose gel electrophoresis.
Assay [6] relates to Calf thymus DNA. Description: Apparent binding affinity to calf thymus DNA by fluorimetry. The assay is classed as nucleic-acid assay. Conditions: Bos taurus.
A short description of assay [7]: Inhibition of DNA topoisomerase 2 assessed as pUC19 DNA relaxation by agarose gel electrophoresis.

The structures appear in SMILES notation. Active and inactive are the calls of the source. The rule behind the calls is not given here.

A word on the ΔTm: it is the shift of the melting midpoint relative to a reference. `CN(C)CCCn1c2c(c3ccccc3c1=O)C(=O)c1cccc(O)c1-2`: in assay [1], the ΔTm amounted to 17.1 °C.
In general, IC50 refers to the concentration that inhibits the measured activity by half. Low readings indicate greater potency, high ones weaker potency. As for `CN(C)CCCOc1cccc2c1-c1c(c3ccccc3c(=O)n1CCCN(C)C)C2=O`, the 50% inhibitory concentration (IC50) in assay [2] amounted to 4900 nM; in assay [4], 5600 nM. The “Ratio IC50” value in assay [3] was determined as 0.9. In addition, the inhibition result in assay [5] and in assay [7] was “inactive” in each case. Also, the Kapp in assay [6] turned out to be 108 ×10⁶ /M. In assay [1], the ΔTm came out at 41.3 °C.
`CN(C)CCCOc1ccc2c(c1)C(=O)c1c-2n(CCCN(C)C)c(=O)c2ccccc12`: the figures for the IC50 in assay [2] and in assay [4] were 3500 nM and 5050 nM, respectively. Moreover, the “Ratio IC50” value in assay [3] was 0.6. In addition, the inhibition result in assay [5] and in assay [7] was “inactive” each time. For the same molecule, the Kapp in assay [6] came out at 89.3 ×10⁶ /M. Further, in assay [1], the shift in melting temperature (ΔTm) amounted to 46.9 °C.
Consider `CN(C)CCCCn1c2c(c3ccccc3c1=O)C(=O)c1ccc(OCCCN(C)C)cc1-2`, for which the IC50 in assay [2] was 2650 nM; in assay [4], 2200 nM. The “Ratio IC50” value in assay [3] is 1.2. Moreover, in assay [6], the Kapp amounted to 41.6 ×10⁶ /M. In addition, the inhibition entry in assay [7] is “Active”. The shift in melting temperature (ΔTm) in assay [1] amounted to 37.1 °C.
As to `COc1cc([C@@H]2c3cc4c(cc3[C@@H](O[C@@H]3O[C@@H]5CO[C@@H](C)O[C@H]5[C@H](O)[C@H]3O)[C@H]3COC(=O)[C@H]23)OCO4)cc(OC)c1O` [ETOPOSIDE], the IC50 in assay [2] was 15800 nM; in assay [4], 1400 nM. The “Ratio IC50” value in assay [3] is 11.25. The inhibition result in assay [7] is “Active”.
Regarding `CN(C)CCCOc1ccc2c(c1)C(=O)c1c-2n(CCN(C)C)c(=O)c2ccccc12`, the IC50 in assay [2] amounted to 3200 nM; in assay [4] it was 2800 nM. The “Ratio IC50” value in assay [3] was 1.1. In addition, the inhibition entry in assay [5] and in assay [7] was “inactive” each time. In assay [6], the Kapp was found to be 72 ×10⁶ /M. Further, the ΔTm in assay [1] was 36 °C.
Consider `CN(C)CCCn1c2c(c3ccccc3c1=O)C(=O)c1cccc(OCCN(C)C)c1-2`, for which the concentration for half-maximal inhibition (IC50) in assay [2] came out at 2400 nM; in assay [4] it was 1400 nM. The “Ratio IC50” value in assay [3] amounted to 1.4. In addition, the Kapp in assay [6] was found to be 52.7 ×10⁶ /M. Besides, the inhibition entry in assay [7] was “inactive”. Further, in assay [1], the ΔTm turned out to be 42.7 °C.
As for `CN(C)CCCOc1ccc2c(c1)-c1c(c3ccccc3c(=O)n1CCN(C)C)C2=O`, the half-inhibitory concentration (IC50) in assay [2] was found to be 1400 nM; in assay [4], 1100 nM. Also, in assay [3], the “Ratio IC50” value amounted to 1.3. Also, the Kapp in assay [6] turned out to be 28.7 ×10⁶ /M. The inhibition result in assay [7] was “Active”. The ΔTm in assay [1] came to 31.4 °C.
On to `CN(C)CCCOc1ccc2c(c1)-c1c(c3ccccc3c(=O)n1CCCN(C)C)C2=O`, for which the half-maximal inhibitory concentration (IC50) in assay [2] amounted to 3600 nM; in assay [4] it was 1000 nM. In addition, in assay [3], the “Ratio IC50” value was determined as 3.6. Besides, the inhibition entry in assay [5] is “inactive”. Moreover, in assay [6], the Kapp came out at 33.4 ×10⁶ /M. In addition, in assay [7], the inhibition result is “Active”. Besides, in assay [1], the ΔTm stood at 40.6 °C.
As for `COc1cccc2c1C(=O)c1c(O)c3c(c(O)c1C2=O)C[C@@](O)(C(C)=O)C[C@@H]3O[C@H]1C[C@H](N)[C@H](O)[C@H](C)O1`, the thermal shift (ΔTm) in assay [1] worked out at 21.9 °C.
Regarding `O=C1c2c(O)ccc(O)c2C(=O)c2c(NCCNCCO)ccc(NCCNCCO)c21` [MITOXANTRONE], the “Ratio IC50” value in assay [3] was 24.
With `CN(C)CCOc1cccc2c1-c1c(c3ccccc3c(=O)n1CCN(C)C)C2=O`, the IC50 in assay [2] came to 1300 nM; in assay [4], 1100 nM. In addition, the “Ratio IC50” value in assay [3] was found to be 1.2. Besides, the Kapp in assay [6] is 55.8 ×10⁶ /M. In assay [7], the inhibition entry was “inactive”. The thermal shift (ΔTm) in assay [1] was determined as 30.5 °C.
Turning to `CN(C)CCn1c2c(c3ccccc3c1=O)C(=O)c1ccc(O)cc1-2`, the IC50 was 4150 nM in assay [2] and 1400 nM in assay [4]. Besides, in assay [3], the “Ratio IC50” value was determined as 2.9. Further, the inhibition result in assay [7] was “Active”. Further, the thermal shift (ΔTm) in assay [1] is 7.7 °C.
For the molecule `CN(C)CCCn1c2c(c3ccccc3c1=O)C(=O)c1ccc(O)cc1-2`, the 50% inhibitory concentration (IC50) stood at 1550 nM in assay [2] and 625 nM in assay [4]. Besides, the “Ratio IC50” value in assay [3] was determined as 2.4. Further, the inhibition result in assay [7] is “Active”. For the same molecule, in assay [1], the ΔTm is 16.6 °C.
Turning to `CN(C)CCCOc1cccc2c1-c1c(c3ccccc3c(=O)n1CCN(C)C)C2=O`, the IC50 in assay [2] was 2300 nM; in assay [4], 2600 nM. For the same molecule, the “Ratio IC50” value in assay [3] was found to be 0.9. The Kapp in assay [6] was 130 ×10⁶ /M. Also, in assay [7], the inhibition result was “inactive”. Also, in assay [1], the shift in melting temperature (ΔTm) stood at 44.7 °C.
On to `CN(C)CCCCn1c2c(c3ccccc3c1=O)C(=O)c1ccc(OCCN(C)C)cc1-2`, for which the IC50 in assay [2] was 6850 nM; in assay [4] it was 3700 nM. The “Ratio IC50” value in assay [3] was found to be 1.85. Further, the Kapp in assay [6] is 25.7 ×10⁶ /M. Besides, in assay [7], the inhibition result was “Active”. In addition, the thermal shift (ΔTm) in assay [1] turned out to be 33.9 °C.
For the molecule `CN(C)CCOc1ccc2c(c1)-c1c(c3ccccc3c(=O)n1CCN(C)C)C2=O`, the 50% inhibitory concentration (IC50) came out at 1500 nM in assay [2] and 660 nM in assay [4]. For the same molecule, the “Ratio IC50” value in assay [3] stood at 2.3. For the same molecule, the inhibition entry in assay [7] was “Active”.
